{"source": "patent US8598202B2", "about": "“Aryl-hydroxyethylamino-pyrimidines and triazines as modulators of fatty acid amide hydrolase” (Janssen Pharmaceutica NV, priority 2008, dated 2013)", "origin": "cited, not measured here", "key": {"thermal nociception [1]": {"tested_on": "thermal nociception", "settings": "rat; cited from earlier work"}, "FAAH": {"molecular_target": "T1, FAAH (Homo sapiens, UniProt O00519)", "T1 sequence (O00519 1-579)": "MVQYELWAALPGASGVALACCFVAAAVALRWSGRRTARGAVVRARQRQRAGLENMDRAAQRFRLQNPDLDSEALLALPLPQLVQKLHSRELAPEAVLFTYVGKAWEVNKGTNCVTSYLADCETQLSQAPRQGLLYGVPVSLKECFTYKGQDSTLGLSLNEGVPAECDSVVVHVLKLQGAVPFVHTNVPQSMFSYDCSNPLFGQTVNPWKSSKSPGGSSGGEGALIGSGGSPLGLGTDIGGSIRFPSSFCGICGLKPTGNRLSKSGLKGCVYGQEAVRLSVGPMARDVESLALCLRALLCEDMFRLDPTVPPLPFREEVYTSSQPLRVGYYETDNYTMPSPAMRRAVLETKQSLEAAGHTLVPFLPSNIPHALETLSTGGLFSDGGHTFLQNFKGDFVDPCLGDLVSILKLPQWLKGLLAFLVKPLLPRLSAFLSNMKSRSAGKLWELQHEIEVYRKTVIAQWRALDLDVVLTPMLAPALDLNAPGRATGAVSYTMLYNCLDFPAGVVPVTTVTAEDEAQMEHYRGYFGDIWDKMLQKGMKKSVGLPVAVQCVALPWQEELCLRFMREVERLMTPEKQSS", "settings": "reported; cited from earlier work"}, "thermal nociception [2]": {"tested_on": "thermal nociception", "settings": "rats; WO 04/033652; cited from earlier work"}, "spasticity": {"tested_on": "spasticity", "settings": "Baker 2001; cited from earlier work"}, "neuropathic pain": {"tested_on": "neuropathic pain", "settings": "rats; WO 02/087569; cited from earlier work"}, "[3]": {"tested_on": "acute thermal nociception", "settings": "rats; WO 02/087569; cited from earlier work"}, "anxiety": {"tested_on": "anxiety", "settings": "rats; Kathuria 2003; cited from earlier work"}, "nociception": {"tested_on": "nociception", "settings": "rat; Kathuria 2003; cited from earlier work"}}, "data": [{"compound": "O=C(CCCCCCc1ccccc1)c1ncc(-c2ccccn2)o1", "note": "[OL-135]", "values": [{"measurement": "analgesic efficacy/activity in hot plate test", "setting": "thermal nociception [1]", "result": "analgesic activity"}, {"measurement": "inhibition of FAAH", "setting": "FAAH", "result": "potent inhibitor"}, {"measurement": "analgesic activity in tail emersion test", "setting": "thermal nociception [2]", "result": "analgesic activity"}]}, {"compound": "CCCCCCCCCCCCCCCCS(=O)(=O)F", "note": "[AM374]", "values": [{"measurement": "reduction of spasticity in CREAE mice", "setting": "spasticity", "result": "significantly reduce spasticity"}]}, {"compound": "Cc1nc(-c2ccccc2)c(-c2ccccc2)n1CCCCCCNC(=O)Oc1ccccc1F", "note": "[BMS-1]", "values": [{"measurement": "analgesic effect in Chung spinal nerve ligation model", "setting": "neuropathic pain", "result": "analgesic effect"}, {"measurement": "analgesic effect in Hargraves test", "setting": "[3]", "result": "analgesic effect"}]}, {"compound": "NC(=O)c1cccc(-c2cccc(OC(=O)NC3CCCCC3)c2)c1", "note": "[URB-597]", "values": [{"measurement": "efficacy in zero plus maze model of anxiety", "setting": "anxiety", "result": "efficacy"}, {"measurement": "analgesic efficacy/activity in hot plate test", "setting": "thermal nociception [1]", "result": "analgesic efficacy"}, {"measurement": "analgesic efficacy in formalin test", "setting": "nociception", "result": "analgesic efficacy"}]}]}
